Patent US8404679B2, “Pyrrolidine derivatives as NK2 receptor antagonists” (Hoffmann-La Roche Inc., priority 2008, dated 2013)

Each molecule was assayed against T1, human NK2 receptor (Homo sapiens, UniProt P21452) (assay: [3H]SR48968 competition binding assay). Conditions: [3H]SR48968 displacement, membranes of CHO cells stably expressing recombinant human NK2 receptor; Ki from IC50 by Cheng-Prussoff.
T1 construct: purchased Perkin Elmer biosignal Inc. 6110510
T1 sequence (P21452 1-398): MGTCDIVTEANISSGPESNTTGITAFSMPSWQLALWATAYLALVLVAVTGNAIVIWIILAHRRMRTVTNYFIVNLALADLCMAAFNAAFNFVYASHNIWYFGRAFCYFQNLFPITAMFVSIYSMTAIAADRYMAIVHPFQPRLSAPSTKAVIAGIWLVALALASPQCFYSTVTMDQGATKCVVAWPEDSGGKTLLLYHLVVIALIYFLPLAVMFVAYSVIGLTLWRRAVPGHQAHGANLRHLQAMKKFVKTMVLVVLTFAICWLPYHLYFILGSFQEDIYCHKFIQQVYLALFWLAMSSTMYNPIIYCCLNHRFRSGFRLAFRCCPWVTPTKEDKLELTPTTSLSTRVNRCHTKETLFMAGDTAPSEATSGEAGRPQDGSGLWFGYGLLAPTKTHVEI
How it was run: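 Membranes from CHO cells stably expressing recombinant human NK2 were incubated 75 min at RT with [3H]SR48968 at its KD and 10 compound concentrations (0.0003–10 μM) in Tris-HCl pH 7.4, MnCl2, chymostatin, BSA. Filter-bound radioactivity was counted; Hill-fitted IC50 converted to Ki via Cheng-Prusoff.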

In order of rising Ki:
1. COc1ccc(C(=O)N(C)[C@H]2CN(C(=O)C3CCN(CCC#N)CC3)C[C@@H]2c2ccc(Cl)c(Cl)c2)cc1C(F)(F)F (racemic) [Example 142, N-[(3RS,4SR)-1-[1-(2-Cyano-ethyl)-piperidine-4-carbonyl]-4-(3,4-dichloro-phenyl)-pyrrolidin-3-yl]-4-methoxy-N-methyl-3-trifluoromethyl-benzamide]  0.4 nM
2. C=C(F)CN1CCC(C(=O)N2C[C@H](c3ccc(Cl)c(Cl)c3)[C@@H](N(C)C(=O)c3ccc(OC)c(C(F)(F)F)c3)C2)CC1 (racemic) [Example 148, N-{(3RS,4SR)-4-(3,4-Dichloro-phenyl)-1-[1-(2-fluoro-allyl)-piperidine-4-carbonyl]-pyrrolidin-3-yl}-4-methoxy-N-methyl-3-trifluoromethyl-benzamide]  0.5 nM
3. COCCN1CCC(C(=O)N2C[C@H](c3ccc(Cl)c(Cl)c3)[C@@H](N(C)C(=O)c3ccc(OC)c(C(F)(F)F)c3)C2)CC1 (racemic) [Example 144, N-{(3RS,4SR)-4-(3,4-Dichloro-phenyl)-1-[1-(2-methoxy-ethyl)-piperidine-4-carbonyl]-pyrrolidin-3-yl}-4-methoxy-N-methyl-3-trifluoromethyl-benzamide]  0.9 nM
4. CCOC(=O)N1CCC(C(=O)N2C[C@H](c3ccc(Cl)c(Cl)c3)[C@@H](N(C)C(=O)c3ccc(OC)c(C(F)(F)F)c3)C2)CC1 (racemic) [Example 145, 4-{(3SR,4RS)-3-(3,4-Dichloro-phenyl)-4-[(4-methoxy-3-trifluoromethyl-benzoyl)-methyl-amino]-pyrrolidine-1-carbonyl}-piperidine-1-carboxylic acid ethyl ester]  1.1 nM
5. COc1ccc(C(=O)N(C)[C@H]2CN(C(=O)c3ccc(-c4nc(C)no4)cc3)C[C@@H]2c2ccc(Cl)c(Cl)c2)cc1C(F)(F)F (racemic) [Example 147, N-{(3RS,4SR)-4-(3,4-Dichloro-phenyl)-1-[4-(3-methyl-[1,2,4]oxadiazol-5-yl)-benzoyl]-pyrrolidin-3-yl}-4-methoxy-N-methyl-3-trifluoromethyl-benzamide]  1.4 nM
6. CN(C(=O)CC1CCCC1)[C@H]1CN(C(=O)C2CCN(CC3CC3)CC2)C[C@@H]1c1ccc(Cl)c(Cl)c1 (racemic) [Example 151, 2-Cyclopentyl-N-[(3RS,4SR)-1-(1-cyclopropylmethyl-piperidine-4-carbonyl)-4-(3,4-dichloro-phenyl)-pyrrolidin-3-yl]-N-methyl-acetamide]  6.7 nM
7. CN(C(=O)Cc1ccc(F)c(F)c1)[C@H]1CN(C(=O)C2CCN(CC3CC3)CC2)C[C@@H]1c1ccc(Cl)c(Cl)c1 (racemic) [Example 150, N-[(3RS,4SR)-1-(1-Cyclopropylmethyl-piperidine-4-carbonyl)-4-(3,4-dichloro-phenyl)-pyrrolidin-3-yl]-2-(3,4-difluoro-phenyl)-N-methyl-acetamide]  19.8 nM
8. CN(C(=O)Cc1cccc(F)c1F)[C@H]1CN(C(=O)C2CCN(CC3CC3)CC2)C[C@@H]1c1ccc(Cl)c(Cl)c1 (racemic) [Example 152, N-[(3RS,4SR)-1-(1-Cyclopropylmethyl-piperidine-4-carbonyl)-4-(3,4-dichloro-phenyl)-pyrrolidin-3-yl]-2-(2,3-difluoro-phenyl)-N-methyl-acetamide]  23 nM
9. CN(C(=O)Cc1ccc(Cl)cc1)[C@H]1CN(C(=O)C2CCN(CC3CC3)CC2)C[C@@H]1c1ccc(Cl)c(Cl)c1 (racemic) [Example 158, 2-(4-Chloro-phenyl)-N-[(3RS,4SR)-1-(1-cyclopropylmethyl-piperidine-4-carbonyl)-4-(3,4-dichloro-phenyl)-pyrrolidin-3-yl]-N-methyl-acetamide]  25.4 nM
10. CN(C(=O)Cc1ccc(F)cc1)C1CN(C(=O)C2CCN(CC3CC3)CC2)CC1c1ccc(Cl)c(Cl)c1 (racemic) [Example 143, N-[(3RS,4RS)-1-(1-Cyclopropylmethyl-piperidine-4-carbonyl)-4-(3,4-dichloro-phenyl)-pyrrolidin-3-yl]-2-(4-fluoro-phenyl)-N-methyl-acetamide]  26.9 nM
